Experimental data: the NIST ThermoML archive (doi:10.1016/j.tca.2005.11.041)
± gives the expanded uncertainty stated by the source.

Experiment: excess molar enthalpy (molar enthalpy of mixing); xn = mol fraction of the nth substance listed
Conditions: 298.15 K, Liquid, Flow calorimetry

COC=O [methyl methanoate] + CCCCO
excess molar enthalpy (5000 kPa, x1 = 0.0501): 0.1057 ± 0.001 kcal/mol
excess molar enthalpy (5000 kPa, x1 = 0.1): 0.1987 ± 0.00172 kcal/mol
excess molar enthalpy (5000 kPa, x1 = 0.1496): 0.2737 ± 0.00229 kcal/mol
excess molar enthalpy (5000 kPa, x1 = 0.2): 0.3348 ± 0.00287 kcal/mol
excess molar enthalpy (5000 kPa, x1 = 0.2496): 0.3818 ± 0.00311 kcal/mol
excess molar enthalpy (5000 kPa, x1 = 0.2999): 0.4177 ± 0.00335 kcal/mol
excess molar enthalpy (5000 kPa, x1 = 0.3508): 0.4426 ± 0.00359 kcal/mol
excess molar enthalpy (5000 kPa, x1 = 0.4004): 0.459 ± 0.00382 kcal/mol
excess molar enthalpy (5000 kPa, x1 = 0.4503): 0.4661 ± 0.00382 kcal/mol
excess molar enthalpy (5000 kPa, x1 = 0.5003): 0.4654 ± 0.00382 kcal/mol
excess molar enthalpy (5000 kPa, x1 = 0.5505): 0.4566 ± 0.00382 kcal/mol
excess molar enthalpy (5000 kPa, x1 = 0.6006): 0.4399 ± 0.00359 kcal/mol
excess molar enthalpy (5000 kPa, x1 = 0.6505): 0.4136 ± 0.00335 kcal/mol
excess molar enthalpy (5000 kPa, x1 = 0.7002): 0.3807 ± 0.00311 kcal/mol
excess molar enthalpy (5000 kPa, x1 = 0.7494): 0.3421 ± 0.00287 kcal/mol
excess molar enthalpy (5000 kPa, x1 = 0.8004): 0.2897 ± 0.00239 kcal/mol
excess molar enthalpy (5000 kPa, x1 = 0.8509): 0.2321 ± 0.00198 kcal/mol
excess molar enthalpy (5000 kPa, x1 = 0.9006): 0.162 ± 0.00143 kcal/mol
excess molar enthalpy (5000 kPa, x1 = 0.9495): 0.0826 ± 0.000837 kcal/mol
excess molar enthalpy (10000 kPa, x1 = 0.05): 0.1054 ± 0.001 kcal/mol
excess molar enthalpy (10000 kPa, x1 = 0.0997): 0.1979 ± 0.00172 kcal/mol
excess molar enthalpy (10000 kPa, x1 = 0.1506): 0.2747 ± 0.00232 kcal/mol
excess molar enthalpy (10000 kPa, x1 = 0.1994): 0.3337 ± 0.00287 kcal/mol
excess molar enthalpy (10000 kPa, x1 = 0.2505): 0.3818 ± 0.00311 kcal/mol
excess molar enthalpy (10000 kPa, x1 = 0.2992): 0.4163 ± 0.00335 kcal/mol
excess molar enthalpy (10000 kPa, x1 = 0.35): 0.4416 ± 0.00359 kcal/mol
excess molar enthalpy (10000 kPa, x1 = 0.3996): 0.4564 ± 0.00382 kcal/mol
excess molar enthalpy (10000 kPa, x1 = 0.4495): 0.464 ± 0.00382 kcal/mol
excess molar enthalpy (10000 kPa, x1 = 0.4995): 0.4626 ± 0.00382 kcal/mol
excess molar enthalpy (10000 kPa, x1 = 0.5497): 0.4531 ± 0.00359 kcal/mol
excess molar enthalpy (10000 kPa, x1 = 0.5998): 0.4355 ± 0.00359 kcal/mol
excess molar enthalpy (10000 kPa, x1 = 0.6498): 0.4104 ± 0.00335 kcal/mol
excess molar enthalpy (10000 kPa, x1 = 0.6995): 0.3791 ± 0.00311 kcal/mol
excess molar enthalpy (10000 kPa, x1 = 0.7511): 0.337 ± 0.00287 kcal/mol
excess molar enthalpy (10000 kPa, x1 = 0.7999): 0.288 ± 0.00239 kcal/mol
excess molar enthalpy (10000 kPa, x1 = 0.8505): 0.2283 ± 0.00196 kcal/mol
excess molar enthalpy (10000 kPa, x1 = 0.9003): 0.1592 ± 0.00141 kcal/mol
excess molar enthalpy (10000 kPa, x1 = 0.9493): 0.07925 ± 0.000789 kcal/mol

COC=O [methyl methanoate] + CC(C)O
excess molar enthalpy (5000 kPa, x1 = 0.0399): 0.08475 ± 0.000837 kcal/mol
excess molar enthalpy (5000 kPa, x1 = 0.0822): 0.1674 ± 0.00148 kcal/mol
excess molar enthalpy (5000 kPa, x1 = 0.1235): 0.2356 ± 0.00201 kcal/mol
excess molar enthalpy (5000 kPa, x1 = 0.1656): 0.2947 ± 0.00239 kcal/mol
excess molar enthalpy (5000 kPa, x1 = 0.2102): 0.3451 ± 0.00287 kcal/mol
excess molar enthalpy (5000 kPa, x1 = 0.2556): 0.3878 ± 0.00311 kcal/mol
excess molar enthalpy (5000 kPa, x1 = 0.3): 0.4214 ± 0.00335 kcal/mol
excess molar enthalpy (5000 kPa, x1 = 0.3471): 0.4472 ± 0.00359 kcal/mol
excess molar enthalpy (5000 kPa, x1 = 0.3951): 0.4659 ± 0.00382 kcal/mol
excess molar enthalpy (5000 kPa, x1 = 0.444): 0.4756 ± 0.00382 kcal/mol
excess molar enthalpy (5000 kPa, x1 = 0.4938): 0.4777 ± 0.00382 kcal/mol
excess molar enthalpy (5000 kPa, x1 = 0.5447): 0.4726 ± 0.00382 kcal/mol
excess molar enthalpy (5000 kPa, x1 = 0.5965): 0.4596 ± 0.00382 kcal/mol
excess molar enthalpy (5000 kPa, x1 = 0.6494): 0.4357 ± 0.00359 kcal/mol
excess molar enthalpy (5000 kPa, x1 = 0.7055): 0.3992 ± 0.00335 kcal/mol
excess molar enthalpy (5000 kPa, x1 = 0.7606): 0.3557 ± 0.00287 kcal/mol
excess molar enthalpy (5000 kPa, x1 = 0.8191): 0.2934 ± 0.00239 kcal/mol
excess molar enthalpy (5000 kPa, x1 = 0.8766): 0.223 ± 0.00191 kcal/mol
excess molar enthalpy (5000 kPa, x1 = 0.9376): 0.1214 ± 0.00112 kcal/mol
excess molar enthalpy (10000 kPa, x1 = 0.0398): 0.0857 ± 0.00086 kcal/mol
excess molar enthalpy (10000 kPa, x1 = 0.082): 0.1675 ± 0.00148 kcal/mol
excess molar enthalpy (10000 kPa, x1 = 0.1232): 0.2355 ± 0.00201 kcal/mol
excess molar enthalpy (10000 kPa, x1 = 0.1651): 0.2936 ± 0.00239 kcal/mol
excess molar enthalpy (10000 kPa, x1 = 0.2096): 0.3446 ± 0.00287 kcal/mol
excess molar enthalpy (10000 kPa, x1 = 0.2549): 0.3862 ± 0.00311 kcal/mol
excess molar enthalpy (10000 kPa, x1 = 0.2993): 0.4185 ± 0.00335 kcal/mol
excess molar enthalpy (10000 kPa, x1 = 0.3463): 0.4443 ± 0.00359 kcal/mol
excess molar enthalpy (10000 kPa, x1 = 0.3943): 0.4624 ± 0.00382 kcal/mol
excess molar enthalpy (10000 kPa, x1 = 0.4432): 0.4723 ± 0.00382 kcal/mol
excess molar enthalpy (10000 kPa, x1 = 0.493): 0.4745 ± 0.00382 kcal/mol
excess molar enthalpy (10000 kPa, x1 = 0.5439): 0.4703 ± 0.00382 kcal/mol
excess molar enthalpy (10000 kPa, x1 = 0.5957): 0.4555 ± 0.00359 kcal/mol
excess molar enthalpy (10000 kPa, x1 = 0.6487): 0.4324 ± 0.00359 kcal/mol
excess molar enthalpy (10000 kPa, x1 = 0.7048): 0.3963 ± 0.00335 kcal/mol
excess molar enthalpy (10000 kPa, x1 = 0.76): 0.351 ± 0.00287 kcal/mol
excess molar enthalpy (10000 kPa, x1 = 0.8186): 0.2901 ± 0.00239 kcal/mol
excess molar enthalpy (10000 kPa, x1 = 0.8762): 0.2164 ± 0.00186 kcal/mol
excess molar enthalpy (10000 kPa, x1 = 0.9374): 0.118 ± 0.0011 kcal/mol
